According to the NIST ThermoML archive (doi:10.1016/j.jct.2017.05.020):
± gives the expanded uncertainty stated by the source.

Tests used:
[1] = refractive index (Na D-line) (dimensionless); wn = mass fraction of the nth substance listed; settings: 100 kPa, Liquid, Standard Abbe refractometry
[2] = wn = mass fraction of the nth substance listed; settings: 100 kPa, Liquid, Vibrating tube method

C=CC[P+](c1ccccc1)(c1ccccc1)c1ccccc1.[Br-] [allyltriphenylphosphonium bromide] + OCCOCCO
refractive index ([1]; 293.15 K, w1 = 0.1842): 1.4817 ± 0.0036 | refractive index ([1]; 293.15 K, w1 = 0.2653): 1.4955 ± 0.0037 | refractive index ([1]; 293.15 K, w1 = 0.4745): 1.5446 ± 0.0039 | refractive index ([1]; 298.15 K, w1 = 0.1842): 1.4801 ± 0.0036 | refractive index ([1]; 298.15 K, w1 = 0.2653): 1.4938 ± 0.0038 | refractive index ([1]; 298.15 K, w1 = 0.4745): 1.543 ± 0.0039 | refractive index ([1]; 303.15 K, w1 = 0.1842): 1.4784 ± 0.0036 | refractive index ([1]; 303.15 K, w1 = 0.2653): 1.4921 ± 0.0038 | refractive index ([1]; 303.15 K, w1 = 0.4745): 1.5413 ± 0.0039 | refractive index ([1]; 308.15 K, w1 = 0.1842): 1.4768 ± 0.0036 | refractive index ([1]; 308.15 K, w1 = 0.2653): 1.4904 ± 0.0037 | refractive index ([1]; 308.15 K, w1 = 0.4745): 1.5396 ± 0.0039 | refractive index ([1]; 313.15 K, w1 = 0.1842): 1.4752 ± 0.0036 | refractive index ([1]; 313.15 K, w1 = 0.2653): 1.4887 ± 0.0037 | refractive index ([1]; 313.15 K, w1 = 0.4745): 1.538 ± 0.0039 | refractive index ([1]; 318.15 K, w1 = 0.1842): 1.4735 ± 0.0036 | refractive index ([1]; 318.15 K, w1 = 0.2653): 1.487 ± 0.0037 | refractive index ([1]; 318.15 K, w1 = 0.4745): 1.5363 ± 0.0039 | refractive index ([1]; 323.15 K, w1 = 0.1842): 1.4718 ± 0.0036 | refractive index ([1]; 323.15 K, w1 = 0.2653): 1.4853 ± 0.0037 | refractive index ([1]; 323.15 K, w1 = 0.4745): 1.5346 ± 0.0039 | refractive index ([1]; 328.15 K, w1 = 0.1842): 1.4701 ± 0.0036 | refractive index ([1]; 328.15 K, w1 = 0.2653): 1.4836 ± 0.0037 | refractive index ([1]; 328.15 K, w1 = 0.4745): 1.5329 ± 0.0039 | refractive index ([1]; 333.15 K, w1 = 0.1842): 1.4684 ± 0.0035 | refractive index ([1]; 333.15 K, w1 = 0.2653): 1.4819 ± 0.0037 | refractive index ([1]; 333.15 K, w1 = 0.4745): 1.5313 ± 0.0039 | refractive index ([1]; 338.15 K, w1 = 0.1842): 1.4668 ± 0.0035 | refractive index ([1]; 338.15 K, w1 = 0.2653): 1.4802 ± 0.0037 | refractive index ([1]; 338.15 K, w1 = 0.4745): 1.5296 ± 0.0039 | refractive index ([1]; 343.15 K, w1 = 0.1842): 1.4651 ± 0.0035 | refractive index ([1]; 343.15 K, w1 = 0.2653): 1.4785 ± 0.0037 | refractive index ([1]; 343.15 K, w1 = 0.4745): 1.5279 ± 0.0039 | mass density ([2]; 293.15 K, w1 = 0.1842): 1146.3 ± 7.5 kg/m3 | mass density ([2]; 293.15 K, w1 = 0.2653): 1159.9 ± 7.6 kg/m3 | mass density ([2]; 293.15 K, w1 = 0.4745): 1201.1 ± 7.6 kg/m3 | mass density ([2]; 298.15 K, w1 = 0.1842): 1142.7 ± 7.4 kg/m3 | mass density ([2]; 298.15 K, w1 = 0.2653): 1156.3 ± 7.6 kg/m3 | mass density ([2]; 298.15 K, w1 = 0.4745): 1197.5 ± 7.6 kg/m3 | mass density ([2]; 303.15 K, w1 = 0.1842): 1139.1 ± 7.4 kg/m3 | mass density ([2]; 303.15 K, w1 = 0.2653): 1152.6 ± 7.5 kg/m3 | mass density ([2]; 303.15 K, w1 = 0.4745): 1193.8 ± 7.6 kg/m3 | mass density ([2]; 308.15 K, w1 = 0.1842): 1135.5 ± 7.4 kg/m3 | mass density ([2]; 308.15 K, w1 = 0.2653): 1149 ± 7.5 kg/m3 | mass density ([2]; 308.15 K, w1 = 0.4745): 1190.1 ± 7.6 kg/m3 | mass density ([2]; 313.15 K, w1 = 0.1842): 1131.9 ± 7.4 kg/m3 | mass density ([2]; 313.15 K, w1 = 0.2653): 1145.3 ± 7.5 kg/m3 | mass density ([2]; 313.15 K, w1 = 0.4745): 1186.4 ± 7.5 kg/m3 | mass density ([2]; 318.15 K, w1 = 0.1842): 1128.2 ± 7.3 kg/m3 | mass density ([2]; 318.15 K, w1 = 0.2653): 1141.7 ± 7.5 kg/m3 | mass density ([2]; 318.15 K, w1 = 0.4745): 1182.7 ± 7.5 kg/m3 | mass density ([2]; 323.15 K, w1 = 0.1842): 1124.6 ± 7.3 kg/m3 | mass density ([2]; 323.15 K, w1 = 0.2653): 1138 ± 7.4 kg/m3 | mass density ([2]; 323.15 K, w1 = 0.4745): 1179 ± 7.5 kg/m3 | mass density ([2]; 328.15 K, w1 = 0.1842): 1121 ± 7.3 kg/m3 | mass density ([2]; 328.15 K, w1 = 0.2653): 1134.4 ± 7.4 kg/m3 | mass density ([2]; 328.15 K, w1 = 0.4745): 1175.4 ± 7.5 kg/m3 | mass density ([2]; 333.15 K, w1 = 0.1842): 1117.3 ± 7.3 kg/m3 | mass density ([2]; 333.15 K, w1 = 0.2653): 1130.7 ± 7.4 kg/m3 | mass density ([2]; 333.15 K, w1 = 0.4745): 1171.7 ± 7.4 kg/m3 | mass density ([2]; 338.15 K, w1 = 0.1842): 1113.6 ± 7.2 kg/m3 | mass density ([2]; 338.15 K, w1 = 0.2653): 1127 ± 7.4 kg/m3 | mass density ([2]; 338.15 K, w1 = 0.4745): 1167.9 ± 7.4 kg/m3 | mass density ([2]; 343.15 K, w1 = 0.1842): 1109.9 ± 7.2 kg/m3 | mass density ([2]; 343.15 K, w1 = 0.2653): 1123.3 ± 7.4 kg/m3 | mass density ([2]; 343.15 K, w1 = 0.4745): 1164.2 ± 7.4 kg/m3

C=CC[P+](c1ccccc1)(c1ccccc1)c1ccccc1.[Br-] [allyltriphenylphosphonium bromide] + OCCOCCOCCO
refractive index ([1]; 293.15 K, w1 = 0.1375): 1.4803 ± 0.0038 | refractive index ([1]; 293.15 K, w1 = 0.2033): 1.4945 ± 0.0039 | refractive index ([1]; 293.15 K, w1 = 0.3895): 1.5314 ± 0.0037 | refractive index ([1]; 298.15 K, w1 = 0.1375): 1.4786 ± 0.0038 | refractive index ([1]; 298.15 K, w1 = 0.2033): 1.4927 ± 0.0039 | refractive index ([1]; 298.15 K, w1 = 0.3895): 1.5297 ± 0.0037 | refractive index ([1]; 303.15 K, w1 = 0.1375): 1.4769 ± 0.0038 | refractive index ([1]; 303.15 K, w1 = 0.2033): 1.4909 ± 0.0039 | refractive index ([1]; 303.15 K, w1 = 0.3895): 1.528 ± 0.0037 | refractive index ([1]; 308.15 K, w1 = 0.1375): 1.4752 ± 0.0038 | refractive index ([1]; 308.15 K, w1 = 0.2033): 1.4892 ± 0.0039 | refractive index ([1]; 308.15 K, w1 = 0.3895): 1.5263 ± 0.0037 | refractive index ([1]; 313.15 K, w1 = 0.1375): 1.4735 ± 0.0038 | refractive index ([1]; 313.15 K, w1 = 0.2033): 1.4874 ± 0.0039 | refractive index ([1]; 313.15 K, w1 = 0.3895): 1.5245 ± 0.0037 | refractive index ([1]; 318.15 K, w1 = 0.1375): 1.4717 ± 0.0038 | refractive index ([1]; 318.15 K, w1 = 0.2033): 1.4857 ± 0.0039 | refractive index ([1]; 318.15 K, w1 = 0.3895): 1.5228 ± 0.0037 | refractive index ([1]; 323.15 K, w1 = 0.1375): 1.47 ± 0.0038 | refractive index ([1]; 323.15 K, w1 = 0.2033): 1.4839 ± 0.0039 | refractive index ([1]; 323.15 K, w1 = 0.3895): 1.5211 ± 0.0037 | refractive index ([1]; 328.15 K, w1 = 0.1375): 1.4683 ± 0.0038 | refractive index ([1]; 328.15 K, w1 = 0.2033): 1.4822 ± 0.0039 | refractive index ([1]; 328.15 K, w1 = 0.3895): 1.5193 ± 0.0037 | refractive index ([1]; 333.15 K, w1 = 0.1375): 1.4666 ± 0.0038 | refractive index ([1]; 333.15 K, w1 = 0.2033): 1.4804 ± 0.0039 | refractive index ([1]; 333.15 K, w1 = 0.3895): 1.5176 ± 0.0037 | refractive index ([1]; 338.15 K, w1 = 0.1375): 1.4649 ± 0.0038 | refractive index ([1]; 338.15 K, w1 = 0.2033): 1.4787 ± 0.0039 | refractive index ([1]; 338.15 K, w1 = 0.3895): 1.5158 ± 0.0037 | refractive index ([1]; 343.15 K, w1 = 0.1375): 1.4632 ± 0.0038 | refractive index ([1]; 343.15 K, w1 = 0.2033): 1.4769 ± 0.0039 | refractive index ([1]; 343.15 K, w1 = 0.3895): 1.5141 ± 0.0037 | mass density ([2]; 293.15 K, w1 = 0.1375): 1146.2 ± 7.9 kg/m3 | mass density ([2]; 293.15 K, w1 = 0.2033): 1159.2 ± 7.8 kg/m3 | mass density ([2]; 293.15 K, w1 = 0.3895): 1190.8 ± 7.7 kg/m3 | mass density ([2]; 298.15 K, w1 = 0.1375): 1142.5 ± 7.9 kg/m3 | mass density ([2]; 298.15 K, w1 = 0.2033): 1155.5 ± 7.8 kg/m3 | mass density ([2]; 298.15 K, w1 = 0.3895): 1187.1 ± 7.7 kg/m3 | mass density ([2]; 303.15 K, w1 = 0.1375): 1138.8 ± 7.9 kg/m3 | mass density ([2]; 303.15 K, w1 = 0.2033): 1151.7 ± 7.7 kg/m3 | mass density ([2]; 303.15 K, w1 = 0.3895): 1183.4 ± 7.7 kg/m3 | mass density ([2]; 308.15 K, w1 = 0.1375): 1135 ± 7.8 kg/m3 | mass density ([2]; 308.15 K, w1 = 0.2033): 1148 ± 7.7 kg/m3 | mass density ([2]; 308.15 K, w1 = 0.3895): 1179.7 ± 7.7 kg/m3 | mass density ([2]; 313.15 K, w1 = 0.1375): 1131.3 ± 7.8 kg/m3 | mass density ([2]; 313.15 K, w1 = 0.2033): 1144.2 ± 7.7 kg/m3 | mass density ([2]; 313.15 K, w1 = 0.3895): 1176.1 ± 7.7 kg/m3 | mass density ([2]; 318.15 K, w1 = 0.1375): 1127.5 ± 7.8 kg/m3 | mass density ([2]; 318.15 K, w1 = 0.2033): 1140.5 ± 7.7 kg/m3 | mass density ([2]; 318.15 K, w1 = 0.3895): 1172.4 ± 7.6 kg/m3 | mass density ([2]; 323.15 K, w1 = 0.1375): 1123.7 ± 7.8 kg/m3 | mass density ([2]; 323.15 K, w1 = 0.2033): 1136.7 ± 7.6 kg/m3 | mass density ([2]; 323.15 K, w1 = 0.3895): 1168.7 ± 7.6 kg/m3 | mass density ([2]; 328.15 K, w1 = 0.1375): 1119.9 ± 7.7 kg/m3 | mass density ([2]; 328.15 K, w1 = 0.2033): 1133 ± 7.6 kg/m3 | mass density ([2]; 328.15 K, w1 = 0.3895): 1165 ± 7.6 kg/m3 | mass density ([2]; 333.15 K, w1 = 0.1375): 1116.1 ± 7.7 kg/m3 | mass density ([2]; 333.15 K, w1 = 0.2033): 1129.2 ± 7.6 kg/m3 | mass density ([2]; 333.15 K, w1 = 0.3895): 1161.3 ± 7.6 kg/m3 | mass density ([2]; 338.15 K, w1 = 0.1375): 1112.2 ± 7.7 kg/m3 | mass density ([2]; 338.15 K, w1 = 0.2033): 1125.5 ± 7.6 kg/m3 | mass density ([2]; 338.15 K, w1 = 0.3895): 1157.6 ± 7.5 kg/m3 | mass density ([2]; 343.15 K, w1 = 0.1375): 1108.4 ± 7.7 kg/m3 | mass density ([2]; 343.15 K, w1 = 0.2033): 1121.7 ± 7.5 kg/m3 | mass density ([2]; 343.15 K, w1 = 0.3895): 1153.9 ± 7.5 kg/m3
